Earlier results, collected in article PMC4469068 (Endocrine-related cancer, 2012).
*1 amine or outer side, *2 acyl side, *3 side chain or, on linkers, in order; H or OH if unused. Where a SMILES comes first, the peptide text is derived from it. Side-chain parts run from the residue outwards. [ ]: non-standard residue; d: D form. The star is where a group is joined. Ethylenediamine = C(CN[*:2])N[*:1]; Hyp = O=C(O)[C@@H]1C[C@@H](O)CN1; Phg = N[C@H](C(=O)O)c1ccccc1; CO = O=C([*:1])[*:2]; Bn = c1ccc(C*)cc1

Assays:
patients with acromegaly = settings: pasireotide 200–600 mcg BID; ref Petersenn et al. 2010
[1] = test system: patients with octreotide-refractory carcinoid syndrome; settings: pasireotide 300–1200 mcg bid; ref Kvols et al. 2006
QTc interval = settings: 1950 mcg twice daily, healthy adults; ref Novartis, 2012
[2] = test system: human corticotroph or somatotroph tumor cell lines; settings: in vitro; ref Batista, et al. 2006; Danila, et al. 2001
[3] = test system: cell lines derived from small intestine or pancreatic neuroendocrine tumors; settings: in vitro; ref Kidd, et al. 2008
[4] = test system: advanced carcinoid tumors; settings: vs. 6 months with placebo; ref Rinke, et al. 2009
[5] = test system: pancreatic neuroendocrine tumors; settings: ref Yao et al. 2011

Q: With NCCCC[C@@H]1NC(=O)[C@@H](Cc2c[nH]c3ccccc23)NC(=O)[C@H](c2ccccc2)NC(=O)[C@@H]2C[C@@H](OC(=O)NCCN)CN2C(=O)[C@H](Cc2ccccc2)NC(=O)[C@H](Cc2ccc(OCc3ccccc3)cc2)NC1=O [pasireotide] (cyclo([Hyp]([CO-Ethylenediamine])[Phg][dW]KY(Bn)F)) as the molecule, how does the binding affinity (sst1; ref Schmid 2008) read?
A: high binding affinity

Q: What about the “binding affinity compared with octreotide” value (sst1; ref Schmid and Schoeffter 2004) of the same molecule?
A: greater binding affinity

Q: And the binding affinity (sst2; ref Schmid 2008)?
A: high binding affinity

Q: And the “binding affinity compared with octreotide” value (sst2; ref Schmid and Schoeffter 2004)?
A: comparable affinity

Q: And the binding affinity (sst3; ref Schmid 2008)?
A: high binding affinity

Q: And the “binding affinity compared with octreotide” value (sst3; ref Schmid and Schoeffter 2004)?
A: greater binding affinity

Q: And the binding affinity (sst5; ref Schmid 2008)?
A: high binding affinity

Q: What about the “binding affinity compared with octreotide” value (sst5; ref Schmid and Schoeffter 2004) of the same molecule?
A: greater binding affinity

Q: What about the “hyperglycemia, patients affected” value (patients with acromegaly) of the same molecule?
A: 6.7%

Q: And the “hyperglycemia, patients affected” value [1]?
A: 27%

Q: What about the “effect on QTc” value (QTc interval) of the same molecule?
A: possible QTc prolongation effect

Q: And the “effect on cell proliferation” value [2]?
A: suppress cell proliferation

Q: And the “effect on cell proliferation” value [3]?
A: inhibition of cell proliferation

Q: Which “median time to tumor progression” value [4] does the source give for octreotide here?
A: 14.3 months

Q: For CO[C@H]1C[C@@H]2CC[C@@H](C)[C@@](O)(O2)C(=O)C(=O)N2CCCC[C@H]2C(=O)O[C@H]([C@H](C)C[C@@H]2CC[C@@H](OCCO)[C@H](OC)C2)CC(=O)[C@H](C)/C=C(\C)[C@@H](O)[C@@H](OC)C(=O)[C@H](C)C[C@H](C)/C=C/C=C/C=C/1C [everolimus], which “rate of tumor regression” value ([5]; everolimus alone, randomized trial) is on record?
A: 64%

Q: What about the “hyperglycemia, patients in the everolimus treatment arm” value ([5]; single agent, any grade) of the same molecule?
A: 13%

Q: What about the “hyperglycemia categorized as grade 3 or 4” value ([5]; single agent) of the same molecule?
A: 5%
